# Results from ChEMBL document CHEMBL6153138, “Discovery of Novel Aromatic Urea-Imidazole Salt Derivatives for Cancer Therapy via Targeting ERK1/2” (J Med Chem, 2025).
# Activity calls are given as the source filed them. The rule behind the calls is not given here.
# Columns and labels:
# MCF7 [1] = experiment: Induction of autophagy in human MCF7 cells assessed as increase in acidic vesicular organelles at 0.5 to 2 uM by Acridine orange staining based analysis; assay type: functional, cell-based; conditions: dose 0.5-2 µM
# [2] = Toxicity in female BALB/c mouse assessed as effect on kidney at 25 to 50 mg/kg, po qd measured after 18 days by H and E staining based analysis; assay type: organism-based; conditions: in vivo, 432 h, dose 25-50 mg/kg, time 18 day
# 4T1-Luc = experiment: Anti-metastatic activity in mouse 4T1-Luc cells assessed as reduction in destroyed alveolar wall at 25 to 50 mg/kg, po measured after 20 days by H and E staining based analysis; assay type: functional, organism-based; conditions: dose 25-50 mg/kg, time 20.0 day
# MCF7 [3] = experiment: Induction of apoptosis in human MCF7 cells assessed as late apoptotic cells at 2 uM incubated for 48 hrs by Annexin V/FITC and PI staining based flow cytometry analysis (reference value: 2.5%); assay type: functional
# [4] = biological target: T1, Mitogen-activated protein kinase 3 (Homo sapiens, UniProt P27361); experiment: Binding affinity to ERK1 (unknown origin) assessed as dissociation constant by MST analysis
# [5] = Toxicity in female BALB/c mouse assessed as effect CHO level in serum at 25 to 50 mg/kg, po qd measured after 18 days by biochemical analysis; assay type: organism-based; conditions: in vivo, 432 h, dose 25-50 mg/kg, time 18 day
# MCF7 [6] = experiment: Induction of apoptosis in human MCF7 cells assessed as late apoptotic cells at 0.5 uM incubated for 48 hrs by Annexin V/FITC and PI staining based flow cytometry analysis (reference value: 2.5%); assay type: functional
# 4T1 [7] = experiment: Antitumor activity against mouse 4T1 cells implanted in female BALB/c mouse model assessed as increase in ERK1/2 phosphorylation at 50 mg/kg, po qd measured from 12 to 24 hrs by immunohistochemical analysis; assay type: functional, organism-based; conditions: time 12-24 hrs
# 4T1 [8] = experiment: Antitumor activity against mouse 4T1 cells implanted in female BALB/c mouse model assessed as reduction in number of Ki67-positive proliferative cells at 25 to 50 mg/kg, po qd by immunohistochemical analysis; assay type: functional, organism-based; conditions: dose 25-50 mg/kg
# MCF7 [9] = experiment: Induction of apoptosis in human MCF7 cells assessed as increase in caspase-3 cleavage at 0.5 to 2 uM by Western blot analysis; assay type: functional, cell-based; conditions: dose 0.5-2 µM
# MCF7 [10] = experiment: Antiproliferative activity against human MCF7 cells harbouring ERK1 knockout incubated for 48 hrs by CCK-8 method; assay type: functional, cell-based
# [11] = biological target: T1, Mitogen-activated protein kinase 3; experiment: Induction of thermal stabilization of ERK1 (unknown origin) at 10 uM by differential scanning fluorimetry analysis
# [12] = Apparent volume of distribution in Sprague-Dawley rat at 1 mg/kg, iv by LC-MS/MS analysis; assay type: ADME, organism-based; conditions: in vivo, read-out: Vz
# MCF7 [13] = experiment: Downregulation of vimentin expression in human MCF7 cells at 0.5 to 2 uM; assay type: functional, cell-based; conditions: dose 0.5-2 µM
# MCF7 [14] = experiment: Induction of apoptosis in human MCF7 cells assessed as early apoptotic cells at 1 uM incubated for 48 hrs by Annexin V/FITC and PI staining based flow cytometry analysis (reference value: 6.64%); assay type: functional
# [15] = Half life in Sprague-Dawley rat at 1 mg/kg, iv by LC-MS/MS analysis; assay type: ADME, organism-based; conditions: in vivo
# MCF7 [16] = experiment: Upregulation of C-caspase3 protein expression in human MCF-7 cells at 1 uM incubated for 6 hrs in presence of 3-methyladenine by Western blot analysis; assay type: functional, cell-based
# [17] = biological target: Mitogen-activated protein kinase 1 (Homo sapiens, UniProt P28482); experiment: Binding affinity to ERK2 (unknown origin) assessed as dissociation constant by MST analysis
# MCF7 [18] = experiment: Induction of autophagy in human MCF7 cells assessed as increase in LC3B expression at 0.5 to 2 uM by immunofluorescence analysis; assay type: functional, cell-based; conditions: dose 0.5-2 µM
# 4T1 [19] = experiment: Antitumor activity against mouse 4T1 cells implanted in female BALB/c mouse model assessed as increase in ERK1/2 phosphorylation at 50 mg/kg, po qd measured from 30 mins to 8 hrs by immunohistochemical analysis; assay type: functional, organism-based; conditions: time 30-480 min
# [20] = Toxicity in female BALB/c mouse assessed as effect on tumor at 50 mg/kg, po qd measured after 18 days in presence of chloroquine by H and E staining based analysis; assay type: organism-based; conditions: in vivo, 432 h, time 18 day
# [21] = AUC (0 to infinity) in Sprague-Dawley rat at 10 mg/kg, po by LC-MS/MS analysis; assay type: ADME, organism-based; conditions: in vivo
# MCF7 [22] = experiment: Induction of autophagic flux in human MCF7 cells assessed as decrease in p62 protein level at 0.5 to 2 uM incubated for 48 hrs by Western blotting analysis; assay type: functional, cell-based; conditions: dose 0.5-2 µM
# [23] = biological target: Serine/threonine-protein kinase TAO2 (Homo sapiens) (UniProt Q9UL54); experiment: Inhibition of human TAO2 at 10000 nM by DiscoverX KINOMEscan assay relative to control
# MCF7 [24] = experiment: Induction of autophagic flux in human MCF7 cells assessed as increase in LC3B-II expression at 1 uM incubated for 48 hrs in presence of chloroquine by Western blot analysis; assay type: functional, cell-based
# 4T1 [25] = experiment: Antitumor activity against mouse 4T1 cells implanted in female BALB/c mouse model assessed as reduction in tumor growth administered po qd measured for 18 days; assay type: functional, organism-based; conditions: dose 25-50 mg/kg, time 18.0 day
# 4T1 [26] = experiment: Antitumor activity against mouse 4T1 cells implanted in female BALB/c mouse model assessed as reduction in tumor weight at 50 mg/kg, po qd measured for 18 days in presence of chloroquine; assay type: functional, organism-based; conditions: time 18.0 day
# 4T1 [27] = experiment: Antitumor activity against mouse 4T1 cells implanted in female BALB/c mouse model assessed as reduction in p-90RSK phosphorylation level at 50 mg/kg, po qd by immunohistochemical analysis; assay type: functional, organism-based
# MCF7 [28] = experiment: Induction of autophagic flux in human MCF7 cells assessed as colocalization of LAMP1 at 1 uM incubated for 48 hrs in presence of chloroquine by immunofluorescence analysis; assay type: functional, cell-based
# MCF7 [29] = experiment: Induction of apoptosis in human MCF7 cells assessed as late apoptotic cells at 1 uM incubated for 48 hrs in presence of 3-methyladenine by Annexin V/FITC and PI staining based flow cytometry analysis (reference value: 6.21%); assay type: functional
# MDA-MB-468 = experiment: Antiproliferative activity against human MDA-MB-468 cells incubated for 48 hrs by CCK-8 method; assay type: functional, cell-based; conditions: MDA-MB-468, 48 h
# MCF7 [30] = experiment: Induction of autophagy in human MCF7 cells assessed as upregulation of LC3B-II expression incubated for 48 hrs by Western blotting analysis; assay type: functional, cell-based; conditions: dose 0.5-2 µM
# [31] = biological target: Vascular endothelial growth factor receptor 3 (Homo sapiens) (UniProt P35916); experiment: Inhibition of human FLT4 at 10000 nM by DiscoverX KINOMEscan assay relative to control
# MCF7 [32] = experiment: Upregulation of E-cadherin expression in human MCF7 cells at 0.5 to 2 uM; assay type: functional, cell-based; conditions: dose 0.5-2 µM
# 4T1 [33] = experiment: Antitumor activity against mouse 4T1 cells implanted in female BALB/c mouse model assessed as reduction in Ki67 expression at 50 mg/kg, po in presence of chloroquine by immunohistochemical analysis; assay type: functional, organism-based
# Mitochondrial membrane = experiment: Induction of mitochondrial membrane potential loss in human MCF7 cells assessed as increase in JC-1 monomers by measuring increase in green fluorescence at 0.5 uM by flow cytometry analysis (reference value: 38.0%); assay type: cell membranes
# T1 sequence (P27361 whole entry): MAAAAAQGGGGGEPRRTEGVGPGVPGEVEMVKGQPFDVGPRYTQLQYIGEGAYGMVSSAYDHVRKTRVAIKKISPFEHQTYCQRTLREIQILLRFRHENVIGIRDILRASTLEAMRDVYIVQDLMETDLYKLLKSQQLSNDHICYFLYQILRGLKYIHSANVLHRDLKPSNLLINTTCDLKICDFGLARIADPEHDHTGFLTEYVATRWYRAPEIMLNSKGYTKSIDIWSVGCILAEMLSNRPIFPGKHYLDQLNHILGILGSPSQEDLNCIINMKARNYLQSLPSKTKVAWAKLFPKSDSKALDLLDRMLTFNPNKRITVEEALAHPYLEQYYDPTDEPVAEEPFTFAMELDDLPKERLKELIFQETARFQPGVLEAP
# Sequence of Vascular endothelial growth factor receptor 3 (Homo sapiens) (P35916 whole entry): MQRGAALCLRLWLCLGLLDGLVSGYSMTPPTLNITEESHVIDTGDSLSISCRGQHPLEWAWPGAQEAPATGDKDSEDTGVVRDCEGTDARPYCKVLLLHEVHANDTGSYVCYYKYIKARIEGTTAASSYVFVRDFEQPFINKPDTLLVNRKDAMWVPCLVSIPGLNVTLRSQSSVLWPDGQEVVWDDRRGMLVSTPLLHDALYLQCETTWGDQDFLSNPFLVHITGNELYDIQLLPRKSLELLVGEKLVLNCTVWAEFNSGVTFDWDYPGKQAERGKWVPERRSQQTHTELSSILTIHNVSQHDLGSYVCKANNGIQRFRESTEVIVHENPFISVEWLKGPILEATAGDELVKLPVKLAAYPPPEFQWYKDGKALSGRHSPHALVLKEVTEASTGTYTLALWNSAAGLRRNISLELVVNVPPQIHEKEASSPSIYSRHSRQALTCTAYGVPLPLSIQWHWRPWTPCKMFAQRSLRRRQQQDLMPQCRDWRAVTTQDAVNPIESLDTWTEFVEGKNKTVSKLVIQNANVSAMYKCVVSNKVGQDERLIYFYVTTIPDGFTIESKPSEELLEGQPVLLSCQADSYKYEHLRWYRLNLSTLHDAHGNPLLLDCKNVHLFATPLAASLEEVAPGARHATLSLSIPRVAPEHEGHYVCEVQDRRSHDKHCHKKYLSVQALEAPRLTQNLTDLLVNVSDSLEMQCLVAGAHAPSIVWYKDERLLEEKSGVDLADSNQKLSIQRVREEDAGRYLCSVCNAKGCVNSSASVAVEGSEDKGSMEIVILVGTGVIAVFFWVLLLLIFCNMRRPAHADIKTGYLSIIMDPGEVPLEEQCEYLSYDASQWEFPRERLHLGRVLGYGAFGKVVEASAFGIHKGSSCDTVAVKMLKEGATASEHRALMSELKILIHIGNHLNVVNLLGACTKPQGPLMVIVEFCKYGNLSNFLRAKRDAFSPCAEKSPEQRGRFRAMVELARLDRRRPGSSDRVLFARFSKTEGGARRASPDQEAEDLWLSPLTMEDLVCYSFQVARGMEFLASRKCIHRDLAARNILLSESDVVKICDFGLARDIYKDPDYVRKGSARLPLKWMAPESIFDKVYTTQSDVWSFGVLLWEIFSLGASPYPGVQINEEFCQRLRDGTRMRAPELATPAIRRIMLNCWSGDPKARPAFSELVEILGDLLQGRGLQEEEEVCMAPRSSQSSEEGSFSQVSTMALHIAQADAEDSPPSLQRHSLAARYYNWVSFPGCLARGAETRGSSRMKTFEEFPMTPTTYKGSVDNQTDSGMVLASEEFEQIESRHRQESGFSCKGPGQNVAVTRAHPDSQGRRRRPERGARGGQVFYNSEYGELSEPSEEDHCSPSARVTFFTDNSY
# Sequence of Mitogen-activated protein kinase 1 (P28482 whole entry): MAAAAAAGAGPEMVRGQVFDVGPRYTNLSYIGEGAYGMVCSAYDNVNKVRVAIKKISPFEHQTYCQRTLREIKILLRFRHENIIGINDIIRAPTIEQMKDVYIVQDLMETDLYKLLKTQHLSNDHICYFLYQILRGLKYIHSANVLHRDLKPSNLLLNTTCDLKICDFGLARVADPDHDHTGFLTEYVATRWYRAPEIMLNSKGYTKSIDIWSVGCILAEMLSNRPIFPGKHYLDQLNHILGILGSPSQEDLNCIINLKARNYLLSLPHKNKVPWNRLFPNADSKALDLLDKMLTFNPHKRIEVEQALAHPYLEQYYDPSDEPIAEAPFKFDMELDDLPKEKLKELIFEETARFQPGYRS
# Sequence of Serine/threonine-protein kinase TAO2 (Homo sapiens) (Q9UL54 whole entry): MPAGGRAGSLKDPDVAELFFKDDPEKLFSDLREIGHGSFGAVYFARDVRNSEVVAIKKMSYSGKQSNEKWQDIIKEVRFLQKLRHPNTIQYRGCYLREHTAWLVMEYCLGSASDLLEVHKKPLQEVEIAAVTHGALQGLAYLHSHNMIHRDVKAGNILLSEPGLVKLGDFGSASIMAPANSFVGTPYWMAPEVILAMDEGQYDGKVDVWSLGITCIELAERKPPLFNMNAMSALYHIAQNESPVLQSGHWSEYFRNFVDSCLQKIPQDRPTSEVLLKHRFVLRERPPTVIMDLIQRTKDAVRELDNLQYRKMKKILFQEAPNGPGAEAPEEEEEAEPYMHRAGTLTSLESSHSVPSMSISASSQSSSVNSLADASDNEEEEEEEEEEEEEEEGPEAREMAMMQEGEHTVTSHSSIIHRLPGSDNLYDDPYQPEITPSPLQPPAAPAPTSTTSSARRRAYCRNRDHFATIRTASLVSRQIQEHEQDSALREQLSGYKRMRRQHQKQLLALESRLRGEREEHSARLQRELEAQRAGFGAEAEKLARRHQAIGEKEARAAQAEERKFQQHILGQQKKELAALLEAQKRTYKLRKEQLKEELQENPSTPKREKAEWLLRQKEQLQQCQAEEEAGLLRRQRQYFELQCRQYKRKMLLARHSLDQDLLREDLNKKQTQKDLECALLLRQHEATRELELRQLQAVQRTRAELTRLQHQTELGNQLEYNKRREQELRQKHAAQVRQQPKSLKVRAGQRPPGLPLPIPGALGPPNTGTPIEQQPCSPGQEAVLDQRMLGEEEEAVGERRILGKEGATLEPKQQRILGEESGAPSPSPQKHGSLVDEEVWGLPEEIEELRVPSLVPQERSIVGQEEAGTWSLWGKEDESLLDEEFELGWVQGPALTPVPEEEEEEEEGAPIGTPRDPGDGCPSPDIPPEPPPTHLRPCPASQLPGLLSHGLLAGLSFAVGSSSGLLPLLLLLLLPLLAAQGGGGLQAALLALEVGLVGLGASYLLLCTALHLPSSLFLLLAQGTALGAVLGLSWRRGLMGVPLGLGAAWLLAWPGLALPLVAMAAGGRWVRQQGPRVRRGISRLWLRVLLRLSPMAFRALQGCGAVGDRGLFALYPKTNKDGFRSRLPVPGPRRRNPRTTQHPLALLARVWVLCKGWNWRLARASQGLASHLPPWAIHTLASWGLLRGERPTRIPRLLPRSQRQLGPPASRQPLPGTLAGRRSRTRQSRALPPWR
structure (smiles),measurement,setting,value
O=C(Nc1cc(C(F)(F)F)cc(C(F)(F)F)c1)N[C@@H](Cc1ccccc1)Cn1c[n+](Cc2ccc3ccccc3c2)c2ccccc21.[Br-],Activity,MCF7 [1],Active
same,Activity,[2],Non-toxic
same,Activity,4T1-Luc,Active
same,Activity,MCF7 [3],14.8%
same,Kd,[4],0.159 µM
same,Activity,[5],Non-toxic
same,Activity,MCF7 [6],7.8%
same,Activity,4T1 [7],inactive
same,Activity,4T1 [8],Active
same,Activity,MCF7 [9],Active
same,Activity,MCF7 [10],Not active; Compound Showed Less Sensitivity Response
same,Activity,[11],Active
same,Vd,[12],4.41 L/kg
same,Activity,MCF7 [13],Active
same,Activity,MCF7 [14],4.58%
same,half-life,[15],3.15 h
same,Activity,MCF7 [16],Active
same,Kd,[17],0.116 µM
same,Activity,MCF7 [18],Dose-dependent-effect
same,Activity,4T1 [19],Active
same,Activity,[20],Non-toxic
same,AUC(0-inf),[21],4.08 µg·h/mL
same,Activity,MCF7 [22],Active
same,inhibition,[23],14%
same,Activity,MCF7 [24],Active
same,Activity,4T1 [25],Dose-dependent-effect
same,Activity,4T1 [26],Active
same,Activity,4T1 [27],Active
same,Activity,MCF7 [28],Active
same,Activity,MCF7 [29],25.1%
same,IC50,MDA-MB-468,2.15 µM
same,Activity,MCF7 [30],Dose-dependent-effect
same,inhibition,[31],18%
same,Activity,MCF7 [32],Active
same,Activity,4T1 [33],Active
same,Activity,Mitochondrial membrane,46.6%
